Where a SMILES comes first, the peptide text is derived from it. Bridges are numbered along the chain shown (N, C = ends). [ ]: non-standard residue; d: D form. Cha = N[C@@H](CC1CCCCC1)C(=O)O; S5 = C=CCCC[C@](C)(N)C(=O)O
Tests used:
SRC-1/ND1-YL2/UBR box = biological target: T1, SRC-1/ND1-YL2/UBR box (UniProt P19812+Q15788); assay: SEC-MALS ternary complex formation; format: binding; settings: SRC-1 alone 20 kDa, UBR box alone 12 kDa
T1 construct: PAS-B domain of human SRC-1 (residues 257-385) tagged with His6; UBR box (residues 113-194) in the UBR1 E3 ubiquitin ligase of S. cerevisiae; His6 (cleaved yes); made in house; host or cells: E. coli BL21 (DE3) pLysS (SRC-1 PAS-B)
T1 sequence (Q15788 257-385): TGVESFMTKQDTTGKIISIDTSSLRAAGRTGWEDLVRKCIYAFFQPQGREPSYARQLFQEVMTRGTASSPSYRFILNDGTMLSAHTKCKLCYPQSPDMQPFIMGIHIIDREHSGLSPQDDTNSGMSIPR
T1 sequence (P19812 113-194): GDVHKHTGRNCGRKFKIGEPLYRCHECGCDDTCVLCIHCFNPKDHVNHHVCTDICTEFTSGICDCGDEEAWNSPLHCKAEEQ
Procedure: An expression plasmid of the PAS-B domain of human SRC-1 (residues 257-385) tagged with His6 was provided by Professor John. A. Robinson. (ChemBioChem 2008, 9, 1318-1322). The plasmid was transformed into BL21 (DE3) pLysS cells, and the protein was cultured in Luria-Bertani broth medium and induced with 0.5 mM IPTG at 18° C. for 16 hours. Cell disruption was performed by ultrasonic treatment in a buffer (50 mM Tris-HCl pH 8.0, 200 mM NaCl and 1 mM TCEP), and insoluble materials were removed by centrifugation. HisTrap™ column (GE Healthcare, 17-5255-01) chromatography was performed on the buffer and 500 mM of imidazole was applied for elution. In order to remove the His6-tag, TEV protease was used and the cleaved samples were loaded in HisTrap™ as described above. The SRC-1 was further purified by size exclusion chromatography (HiLoad™ 16/600 Superdex 75 pg) in a final buffer of 20 mM Tris-HCl pH 7.5, 150 mM NaCl and 1 mM TCEP. […]
The next step was to confirm whether ND1-YL2 could indeed form a ternary complex. […] Light scattering and differential refractive index data were collected and analyzed using ASTRA®V software (Wyatt Technology) (FIG. 12A). The individual molecules SRC-1 and UBR box had molecular masses of 20 and 12 kDa, respectively, and were detected to be 40 kDa in the presence of ND1-YL2, which is a result showing that a ternary complex was formed (FIG. 12A).

Colo205 = assay: Cell viability assay; format: cell-based, human; settings: Colo205, various concentrations, 48 hours
Procedure: (§1) To further confirm the above results, an MTT cell viability assay was performed. MDA-MB-231 (1×10^4 cells/well), HEK293T (1×10^4 cells/well) and Colo205 (2×10^4 cells/well) cells were seeded in a 96-well plate, and cultured under the conditions of 37° C. and 5% carbon dioxide. After 24 hours, the cells were washed twice with DPBS and treated with DMSO or various concentrations of ND1-YL2 in Opti-MEM medium for 48 hours. Cell viability was measured by the Cyto X cell viability assay kit (LPS solution) according to the manufacturer's instructions.

MDA-MB-231 = assay: Cell viability assay; format: cell-based, human; settings: MDA-MB-231, various concentrations, 48 hours
Procedure: as §1

MDA-MB-231-RFP cells = assay: Pulmonary metastasis model in mice; format: in vivo, BALB/c-nude mice; settings: cells treated with 100 μM for 12 hours, intravenously injected, flow cytometry of lungs after two weeks
Procedure: It was confirmed whether ND1-YL2 could inhibit cancer metastasis through mice model. MDA-MB-231-RFP cells expressing red fluorescent protein (RFP) were cultured in DMEM (Welgene) containing 10% FBS (Omega Scientific Inc.) under the conditions of 37° C. and 5% CO2. 5-week-old BALB/c-nude mice (OriententBio Inc.) were maintained in a sterile environment and had free access to food and water. All animal procedures were approved by the Organ Animal Care and Use Committee of POSTECH. For the pulmonary metastasis model, MDA-MB-231-RFP cells treated with DMSO or 100 μM of ND1-YL2 for 12 hours were intravenously injected at 10^6 cells per mouse, followed by […]. The lungs were harvested and prepared in a single cell suspension and filtered through a 100 μm cell strainer (Corning). It was further cultured for 2 minutes in ACK lysis buffer (Gibco). The samples were analyzed by LSR Fortessa (BD Biosciences). […] To visualize lung metastasis, lung sections were prepared and dyed with Haemotoxylin and Eosin (H&E) stain.

CSF-1 = CSF-1 mRNA level by RT-qPCR in MDA-MB-231 cells; format: cell-based, human; settings: 12 hours
Description: The pharmacological effects on SRC-1 dependent signal transmission were explored using the previously discovered SRC-1 degrading substance. The SRC-1 is overexpressed in various cancers and plays a pivotal role in increasing cell migration and invasion by regulating the expression of related genes. Therefore, when treated with ND1-YL2, an SRC-1 degrading substance, the expression of genes stimulated by SRC-1, such as colony stimulating factor-1 (CSF-1), a gene encoding the cytokine CSF-1 that induces cell differentiation and migration, will be suppressed. To confirm this, MDA-MB-231 cells were treated with DMSO and various concentrations of ND1-YL2, YL2 or N-degron tetrapeptide for 12 hours, and the mRNA level of CSF-1 was normalized to 18S level. Confirmation was made using quantitative real-time polymerase chain reaction (RT-qPCR). MDA-MB-231 cells were seeded at 2×10^5 cells per well. After 24 hours, compounds (YL2, RLAA or ND1-YL2) were treated in Opti-MEM medium for 12 hours. Subsequently, general mRNA isolation was performed using TRI reagent (Takara), and total mRNA was isolated from the cells. The absorbance of total mRNA was measured with a Tecan F200 Nanophotometer, and reverse transcription was performed using AccuPower RocketScript Cycle RT PreMix (Bioneer). Quantitative real-time PCR for CSF-1, E-Cadherin and 18S was performed using a StepOnePlus Real-Time PCR System and SYBR Green mix (Applied Biosystems) according to the manufacturer's manual.

SMILES: CC(C)C[C@H](NC(=O)[C@H](C)NC(=O)[C@H](C)NC(=O)[C@H](C)NC(=O)[C@H](C)NC(=O)[C@H](CC(C)C)NC(=O)[C@@H](N)CCCNC(=N)N)C(=O)N[C@@H](CC(C)C)C(=O)N1CCC[C@H]1C(=O)N1CCC[C@H]1C(=O)N[C@H](C(=O)N[C@@H](CCC(=O)O)C(=O)N[C@@H](CCC(N)=O)C(=O)N[C@@H](CC(=O)O)C(=O)N[C@@H](CC(C)C)C(=O)N[C@@]1(C)CCC/C=C\CCC[C@@](C)(C(=O)N[C@@H](Cc2ccc(O)cc2)C(N)=O)NC(=O)[C@H](CC2CCCCC2)NC(=O)[C@H](CC(C)C)NC(=O)[C@H](CCCCN)NC1=O)[C@@H](C)O [ND1-YL2] (H-RLAAAALLPPTEQDL[S5]KL[Cha][S5]Y-NH2; staple (Z) 16-20)
- Molecular mass detected for SRC-1 and UBR box in the presence of compound (SRC-1/ND1-YL2/UBR box): 40 kDa
- Effect on cell survival (Colo205): did not significantly affect the survival
- Effect on cell survival (MDA-MB-231): did not significantly affect the survival
- Reduction of infiltrated MDA-MB-231-RFP cells in lungs compared to vehicle samples (MDA-MB-231-RFP cells): 40%
- Effect on CSF-1 expression (mRNA normalized to 18S) (CSF-1): downregulated CSF-1 expression

From patent US20230405134A1, “NOVEL PROTAC CHIMERIC COMPOUND, AND PHARMACEUTICAL COMPOSITION COMPRISING SAME FOR PREVENTING, AMELIORATING, OR TREATING DISEASES THROUGH TARGET PROTEIN DEGRADATION” (POSTECH RESEARCH AND BUSINESS DEVELOPMENT FOUNDATION, priority 2020, published 2023)
